Consider 14 compounds from patent US20140107049A1, “MANNOSE DERIVATIVES FOR TREATING BACTERIAL INFECTIONS” (priority 2012, published 2014).

The assay addresses FimH-CRD (Escherichia coli, UniProt P08191). Briefly: Competitive binding assay (fluorescence polarization, Alexa647 mannoside probe). How it is done: The following competitive binding assay is performed: Round bottom, low volume 384-well microtiter plates are filled with 20 μl/well of a binding solution of FimH-CRD in 50 mM Tris, pH 7.0, 100 mM NaCl, 1 mM EDTA, 5 mM beta mercaptoethanol, 0.05% BSA, 5 nM of the Alexa647 mannoside probe and 60 nM of the FimH-CRD. Control wells using the same conditions but no FimH-CRD added are also prepared (protein-free). Compounds are serially diluted (12-point dose) in DMSO from 75 μM down to 0.4 nM. Compounds or DMSO are then added to each well (0.5 μl) to reach the final concentration of each drug (2.5% final DMSO concentration), in duplicate. Plates are then incubated for a minimum of five hours at room temperature in the dark. Plates are then read using the SpectaMax Paradigm Multi-Mode plate reader and the appropriate fluorescent polarization Detection cartridge (Alexa-647).
Alexa 647 mannoside probe is prepared using the similar procedure reported for FAM mannoside (Han, Z. et. al., 2010, J. Med. Chem., 53, 4779) and is described in the scheme below.
To a blue colored stirred solution of (2S,3S,4S,5S,6R)-2-(4-aminobutoxy)-6-(hydroxymethyl)tetrahydropyran-3,4,5-triol (2.21 mg, 0.009 mmol) and the (2E)-2-[(2E,4E)-5-[3,3-dimethyl-5-sulfonato-1-(3-sulfonatopropyl)indol-1-ium-2-yl]penta-2,4-dienylidene]-3-[6-(2,5-dioxopyrrolidin-1-yl)oxy-6-oxo-hexyl]-3-methyl-1-(3-sulfonatopropyl)indoline-5-sulfonate (Potassium Ion (3)) (4.9 mg, 0.0044 mmol) in DMF (44 μL) is added Et3N (5.4 mg, 7.0 μL, 0.053 mmol) at rt. The solution is stirred at room temperature over night, concentrated, dissolved in water and purified on 12 g C-18 silica gel cartridge on Isolera system using acetonitrile in water (0 to 40%, 10 CV) and followed by lyophilization to afford Alexa 647 mannoside probe (3.3 mg, 34%) as deep blue solid.
The Kd values of the compounds tested in duplicates are calculated with prism software (GraphPad Software, Inc, La Jolla, USA) with Alexa-647 probe and FimH-CRD.

Chain of FimH-CRD (P08191 22-177): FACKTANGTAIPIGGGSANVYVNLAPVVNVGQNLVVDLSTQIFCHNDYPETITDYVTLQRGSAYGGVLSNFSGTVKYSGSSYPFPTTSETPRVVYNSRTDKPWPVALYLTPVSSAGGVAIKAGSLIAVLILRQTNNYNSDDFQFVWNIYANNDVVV

Compound `CNC(=O)c1cccc(-c2ccc(O[C@H]3O[C@H](CO)[C@@H](O)[C@H](C(O)[C@H]4O[C@H](CO)[C@@H](O)[C@H](O)[C@@H]4O)[C@@H]3O)cc2)c1` (stereo partly drawn) [Compound 1, 3-[4-[(2R,3S,4R,5S,6R)-3,5-Dihydroxy-6-(hydroxymethyl)-4-[hydroxy-[(2R,3S,4S,5S,6R)-3,4,5-trihydroxy-6-(hydroxymethyl)tetrahydropyran-2-yl]methyl]tetrahydropyran-2-yl]oxyphenyl]-N-methyl-benzamide] gave a Kd of 29 nM.
With `CNC(=O)c1cccc(O[C@H]2O[C@H](CO)[C@@H](O)[C@H](C[C@H]3O[C@H](CO)[C@@H](O)[C@H](O)[C@@H]3O)[C@@H]2O)c1` [Compound 5, 3-[(2R,3S,4S,5S,6R)-3,5-Dihydroxy-6-(hydroxymethyl)-4-[[(2R,3S,4R,5S,6R)-3,4,5-trihydroxy-6-(hydroxymethyl)tetrahydropyran-2-yl]methyl]tetrahydropyran-2-yl]oxy-N-methyl-benzamide] the figure was 72 nM; with `CNC(=O)c1ccc(-c2ccc(C)c(O[C@H]3O[C@H](CO)[C@@H](O)[C@H](C[C@H]4O[C@H](CO)[C@@H](O)[C@H](O)[C@@H]4O)[C@@H]3O)c2)cc1` [Compound 15, 4-[3-[(2R,3S,4S,5S,6R)-3,5-Dihydroxy-6-(hydroxymethyl)-4-[[(2R,3S,4R,5S,6R)-3,4,5-trihydroxy-6-(hydroxymethyl)tetrahydropyran-2-yl]methyl]tetrahydropyran-2-yl]oxy-4-methyl-phenyl]-N-methyl-benzamide], 19 nM.
With `CNC(=O)c1cccc(-c2ccc(O[C@H]3O[C@H](CO)[C@@H](O)[C@H](C[C@H]4O[C@H](CO)[C@@H](O)[C@H](O)[C@@H]4O)[C@@H]3O)cc2)c1` [Compound 3, 3-[4-[(2R,3S,4S,5S,6R)-3,5-Dihydroxy-6-(hydroxymethyl)-4-[[(2R,3S,4R,5S,6R)-3,4,5-trihydroxy-6-(hydroxymethyl)tetrahydropyran-2-yl]methyl]tetrahydropyran-2-yl]oxyphenyl]-N-methyl-benzamide] the figure was 66 nM; with `CNC(=O)c1cc(C(=O)NC)cc(-c2ccc(O[C@H]3O[C@H](CO)[C@@H](O)[C@H](C[C@H]4O[C@H](CO)[C@@H](O)[C@H](O)[C@@H]4O)[C@@H]3O)cc2)c1` [Compound 8, 5-[4-[(2R,3S,4S,5S,6R)-3,5-Dihydroxy-6-(hydroxymethyl)-4-[[(2R,3S,4R,5S,6R)-3,4,5-trihydroxy-6-(hydroxymethyl)tetrahydropyran-2-yl]methyl]tetrahydropyran-2-yl]oxyphenyl]-N1,N3-dimethyl-benzene-1,3-dicarboxamide], 64 nM.
In the case of `Cc1nnc(-c2ccc(-c3ccc(O[C@H]4O[C@H](CO)[C@@H](O)[C@H](C[C@H]5O[C@H](CO)[C@@H](O)[C@H](O)[C@@H]5O)[C@@H]4O)cc3)cc2)o1` [Compound 7, (2R,3S,4R,5S,6R)-2-[[(2R,3S,4S,5S,6R)-3,5-Dihydroxy-2-(hydroxymethyl)-6-[4-[4-(5-methyl-1,3,4-oxadiazol-2-yl)phenyl]phenoxy]tetrahydropyran-4-yl]methyl]-6-(hydroxymethyl)tetrahydropyran-3,4,5-triol] it was 94 nM.
`CNC(=O)c1cccc(-c2ccc(O[C@H]3O[C@H](CO)[C@@H](O)[C@H](C[C@H]4O[C@H](CO)[C@@H](O)[C@H](O)[C@@H]4O)[C@@H]3O)c(C)c2)c1` [Compound 4, 3-[4-[(2R,3S,4S,5S,6R)-3,5-Dihydroxy-6-(hydroxymethyl)-4-[[(2R,3S,4R,5S,6R)-3,4,5-trihydroxy-6-(hydroxymethyl)tetrahydropyran-2-yl]methyl]tetrahydropyran-2-yl]oxy-3-methyl-phenyl]-N-methyl-benzamide] yielded a Kd of 51 nM.
In the case of `CO[C@H]1O[C@H](CO)[C@@H](O)[C@H](C(O)[C@H]2O[C@H](CO)[C@@H](O)[C@H](O)[C@@H]2O)[C@@H]1O` (stereo partly drawn) [Compound 2, (2R,3S,4S,5S,6R)-2-[[(2R,3S,4R,5S,6S)-3,5-Dihydroxy-2-(hydroxymethyl)-6-methoxy-tetrahydropyran-4-yl]-hydroxy-methyl]-6-(hydroxymethyl)tetrahydropyran-3,4,5-triol] it was 124 nM.
In the case of `CNC(=O)c1cc(C(=O)NC)cc(-c2cccc(O[C@H]3O[C@H](CO)[C@@H](O)[C@H](C[C@H]4O[C@H](CO)[C@@H](O)[C@H](O)[C@@H]4O)[C@@H]3O)c2)c1` [Compound 13, 5-[3-[(2R,3S,4S,5S,6R)-3,5-Dihydroxy-6-(hydroxymethyl)-4-[[(2R,3S,4R,5S,6R)-3,4,5-trihydroxy-6-(hydroxymethyl)tetrahydropyran-2-yl]methyl]tetrahydropyran-2-yl]oxyphenyl]-N1,N3-dimethyl-benzene-1,3-dicarboxamide] it was 48 nM; in that of `CNC(=O)Cc1cccc(-c2ccc(O[C@H]3O[C@H](CO)[C@@H](O)[C@H](C[C@H]4O[C@H](CO)[C@@H](O)[C@H](O)[C@@H]4O)[C@@H]3O)cc2)c1` [Compound 9, 2-[3-[4-[(2R,3S,4S,5S,6R)-3,5-Dihydroxy-6-(hydroxymethyl)-4-[[(2R,3S,4R,5S,6R)-3,4,5-trihydroxy-6-(hydroxymethyl)tetrahydropyran-2-yl]methyl]tetrahydropyran-2-yl]oxyphenyl]phenyl]-N-methyl-acetamide], 79 nM.
In the case of `OC[C@H]1O[C@H](C[C@@H]2[C@H](O)[C@@H](Oc3cccc(O)c3)O[C@H](CO)[C@H]2O)[C@@H](O)[C@@H](O)[C@@H]1O` [Compound 6, (2R,3S,4R,5S,6R)-2-[[(2R,3S,4S,5S,6R)-3,5-Dihydroxy-2-(hydroxymethyl)-6-(3-hydroxyphenoxy)tetrahydropyran-4-yl]methyl]-6-(hydroxymethyl)tetrahydropyran-3,4,5-triol] it was 301 nM.
In turn, `O=C1NCC(c2ccc(O[C@H]3O[C@H](CO)[C@@H](O)[C@H](C[C@H]4O[C@H](CO)[C@@H](O)[C@H](O)[C@@H]4O)[C@@H]3O)cc2)=C(O)N1` [Compound 12, 5-[4-[(2R,3S,4S,5S,6R)-3,5-Dihydroxy-6-(hydroxymethyl)-4-[[(2R,3S,4R,5S,6R)-3,4,5-trihydroxy-6-(hydroxymethyl)tetrahydropyran-2-yl]methyl]tetrahydropyran-2-yl]oxyphenyl]-6-hydroxy-3,4-dihydro-1H-pyrimidin-2-one] came in with a Kd of 111 nM.
With `O=c1[nH]cc(-c2ccc(O[C@H]3O[C@H](CO)[C@@H](O)[C@H](C[C@H]4O[C@H](CO)[C@@H](O)[C@H](O)[C@@H]4O)[C@@H]3O)cc2)c(=O)[nH]1` [Compound 11, 5-[4-[(2R,3S,4S,5S,6R)-3,5-Dihydroxy-6-(hydroxymethyl)-4-[[(2R,3S,4R,5S,6R)-3,4,5-trihydroxy-6-(hydroxymethyl)tetrahydropyran-2-yl]methyl]tetrahydropyran-2-yl]oxyphenyl]-1H-pyrimidine-2,4-dione] the figure was 97 nM.
In turn, `CNC(=O)Cc1cccc(-c2cccc(O[C@H]3O[C@H](CO)[C@@H](O)[C@H](C[C@H]4O[C@H](CO)[C@@H](O)[C@H](O)[C@@H]4O)[C@@H]3O)c2)c1` [Compound 10, 2-[3-[3-[(2R,3S,4S,5S,6R)-3,5-Dihydroxy-6-(hydroxymethyl)-4-[[(2R,3S,4R,5S,6R)-3,4,5-trihydroxy-6-(hydroxymethyl)tetrahydropyran-2-yl]methyl]tetrahydropyran-2-yl]oxyphenyl]phenyl]-N-methyl-acetamide] showed a Kd of 50 nM.
